Consider four compounds from PMC5557014 (Biochemical pharmacology, 2017).

In assay [1] the test system is HIV-1 RT F61A. Briefly: Mutant HIV-1 RT assay F61A. Type of assay: biochemical.
The target in assay [2] is T1, cellular DNA polymerase α (Homo sapiens, UniProt P09884).
T1 sequence (P09884 1-1462): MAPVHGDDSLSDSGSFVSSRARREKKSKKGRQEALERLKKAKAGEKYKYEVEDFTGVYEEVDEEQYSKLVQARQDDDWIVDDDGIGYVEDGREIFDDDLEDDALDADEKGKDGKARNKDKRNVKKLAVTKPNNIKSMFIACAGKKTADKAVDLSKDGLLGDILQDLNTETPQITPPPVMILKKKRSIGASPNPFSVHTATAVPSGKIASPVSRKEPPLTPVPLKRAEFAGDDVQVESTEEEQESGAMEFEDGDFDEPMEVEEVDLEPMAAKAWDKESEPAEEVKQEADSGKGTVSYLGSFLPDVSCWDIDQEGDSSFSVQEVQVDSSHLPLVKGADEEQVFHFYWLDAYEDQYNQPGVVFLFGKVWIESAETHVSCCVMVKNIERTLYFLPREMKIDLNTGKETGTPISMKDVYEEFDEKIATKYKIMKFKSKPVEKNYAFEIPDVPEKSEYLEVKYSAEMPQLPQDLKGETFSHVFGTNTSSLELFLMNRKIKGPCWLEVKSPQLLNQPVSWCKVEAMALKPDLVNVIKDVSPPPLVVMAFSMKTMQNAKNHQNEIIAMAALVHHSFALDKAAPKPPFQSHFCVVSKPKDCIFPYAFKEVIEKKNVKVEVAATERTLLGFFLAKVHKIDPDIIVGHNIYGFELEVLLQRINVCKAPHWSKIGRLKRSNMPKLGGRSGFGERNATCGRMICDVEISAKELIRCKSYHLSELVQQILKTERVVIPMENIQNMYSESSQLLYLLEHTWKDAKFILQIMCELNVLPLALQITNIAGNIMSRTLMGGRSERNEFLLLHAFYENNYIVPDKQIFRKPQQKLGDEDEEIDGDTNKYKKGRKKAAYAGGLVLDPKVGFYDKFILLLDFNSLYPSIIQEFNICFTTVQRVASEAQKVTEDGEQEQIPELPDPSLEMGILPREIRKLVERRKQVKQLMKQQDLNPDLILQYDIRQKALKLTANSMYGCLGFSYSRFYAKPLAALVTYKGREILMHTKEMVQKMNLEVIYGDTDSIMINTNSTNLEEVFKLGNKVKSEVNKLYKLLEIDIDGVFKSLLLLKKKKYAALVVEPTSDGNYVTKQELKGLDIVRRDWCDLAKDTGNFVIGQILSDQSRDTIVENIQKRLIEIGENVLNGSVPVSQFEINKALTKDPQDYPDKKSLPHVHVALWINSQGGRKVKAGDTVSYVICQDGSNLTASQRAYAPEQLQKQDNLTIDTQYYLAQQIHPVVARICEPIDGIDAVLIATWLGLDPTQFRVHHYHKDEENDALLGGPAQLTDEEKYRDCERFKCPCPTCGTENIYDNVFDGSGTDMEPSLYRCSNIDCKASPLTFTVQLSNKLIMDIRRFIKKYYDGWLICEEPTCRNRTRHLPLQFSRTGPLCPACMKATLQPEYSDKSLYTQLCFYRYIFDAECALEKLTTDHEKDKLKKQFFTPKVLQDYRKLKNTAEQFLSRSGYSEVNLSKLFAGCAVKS
Briefly: Cellular DNA polymerase α assay. Type of assay: biochemical.

Assay [3] has as its system HIV-1 RT V75I. Description: Mutant HIV-1 RT assay V75I. The class given is biochemical. As to conditions: Poly rA.dT [^3H]dTTP.
Assay [4] concerns HIV-1 RT K70R. Description: Mutant HIV-1 RT assay K70R. The class given is biochemical. Particulars: Poly rA.dT [^3H]dTTP.
Assay [5] deals with HSV-1 DNA polymerase (Human herpesvirus 1, UniProt P04293). Description: HSV-1 DNA polymerase enzyme assay. Particulars: calf thymus DNA. The class given is biochemical.
Assay [6] deals with HIV-1 RT M184V. Description: Mutant HIV-1 RT assay M184V. Type of assay: biochemical. Particulars: Poly rI.dC [^3H]dCTP.
Assay [7] has as its system HIV-1 RT K70E. Briefly: Mutant HIV-1 RT assay K70E. The class given is biochemical.
Assay [8] concerns the target HIV-1 RT (Human immunodeficiency virus type 1 group M subtype B, UniProt P04585). Briefly: HIV-1 RT assay with homopolymeric template/primers. Type of assay: biochemical.
In assay [9] the test system is HIV-1 RT K103N.
The subject of assay [10] is HIV-1 RT E138K. Description: Mutant HIV-1 RT assay E138K. The class given is biochemical.
The test system of assay [11] is HIV-1 RT Y181C.
Assay [12] deals with HIV-1 RT Q151M. Description: Mutant HIV-1 RT assay Q151M. Type of assay: biochemical.
The test system of assay [13] is HIV-1 RT V106A.
Assay [14] addresses HCMV DNA polymerase (Human cytomegalovirus, UniProt P08546). Briefly: HCMV DNA polymerase enzyme assay. Type of assay: biochemical. Particulars: calf thymus DNA.
The subject of assay [15] is HIV-1 RT M184V + E138K. Briefly: Mutant HIV-1 RT assay M184V + E138K. The class given is biochemical. Particulars: Poly rI.dC [^3H]dCTP.
Assay [16] concerns HIV-1 RT M184V + Y115F. Briefly: Mutant HIV-1 RT assay M184V + Y115F. The class given is biochemical. Particulars: Poly rI.dC [^3H]dCTP.
In assay [17] the test system is HIV-1 RT K70Q. Briefly: Mutant HIV-1 RT assay K70Q. Type of assay: biochemical. Particulars: Poly rI.dC [^3H]dCTP.
Assay [18] has as its system HIV-1 RT M184I + E138K. Description: Mutant HIV-1 RT assay M184I + E138K. Type of assay: biochemical.
The test system of assay [19] is HIV-1 RT K65R. Description: Mutant HIV-1 RT assay K65R. The class given is biochemical.
The subject of assay [20] is HIV-1 RT M184I. Description: Mutant HIV-1 RT assay M184I. The class given is biochemical. As to conditions: Poly rI.dC [^3H]dCTP.
For assay [21], the target named is cellular DNA polymerase β (Homo sapiens, UniProt P06746). Briefly: Cellular DNA polymerase β assay. Type of assay: biochemical.
The subject of assay [22] is HIV-1 RT L100I. As to conditions: Poly rA.dT [^3H]dTTP.
The mark [23] stands for this setting: read-out: IC50 α DNA pol, calf thymus DNA, [^3H]dGTP.
The mark [24] stands for this setting: read-out: IC50 HSV-1 DNA pol, [^3H]dGTP.
The mark [25] stands for this setting: read-out: IC50 HSV-1 DNA pol, [^3H]dTTP.
Where [26] appears, read: read-out: IC50 HIV-1 RT, poly rA.dT, [^3H]dTTP.
Setting [27] is: read-out: IC50 HIV-1 RT, poly rC.dG, [^3H]dGTP.
Where [28] appears, read: read-out: IC50 HCMV DNA pol, [^3H]dGTP.
Setting [29] is: read-out: IC50 HCMV DNA pol, [^3H]dTTP.
The mark [30] stands for this setting: read-out: IC50 β DNA pol, calf thymus DNA, [^3H]dGTP.

Like-named read-outs stand apart in the source and are kept apart here.

Chain of HSV-1 DNA polymerase (P04293 whole entry): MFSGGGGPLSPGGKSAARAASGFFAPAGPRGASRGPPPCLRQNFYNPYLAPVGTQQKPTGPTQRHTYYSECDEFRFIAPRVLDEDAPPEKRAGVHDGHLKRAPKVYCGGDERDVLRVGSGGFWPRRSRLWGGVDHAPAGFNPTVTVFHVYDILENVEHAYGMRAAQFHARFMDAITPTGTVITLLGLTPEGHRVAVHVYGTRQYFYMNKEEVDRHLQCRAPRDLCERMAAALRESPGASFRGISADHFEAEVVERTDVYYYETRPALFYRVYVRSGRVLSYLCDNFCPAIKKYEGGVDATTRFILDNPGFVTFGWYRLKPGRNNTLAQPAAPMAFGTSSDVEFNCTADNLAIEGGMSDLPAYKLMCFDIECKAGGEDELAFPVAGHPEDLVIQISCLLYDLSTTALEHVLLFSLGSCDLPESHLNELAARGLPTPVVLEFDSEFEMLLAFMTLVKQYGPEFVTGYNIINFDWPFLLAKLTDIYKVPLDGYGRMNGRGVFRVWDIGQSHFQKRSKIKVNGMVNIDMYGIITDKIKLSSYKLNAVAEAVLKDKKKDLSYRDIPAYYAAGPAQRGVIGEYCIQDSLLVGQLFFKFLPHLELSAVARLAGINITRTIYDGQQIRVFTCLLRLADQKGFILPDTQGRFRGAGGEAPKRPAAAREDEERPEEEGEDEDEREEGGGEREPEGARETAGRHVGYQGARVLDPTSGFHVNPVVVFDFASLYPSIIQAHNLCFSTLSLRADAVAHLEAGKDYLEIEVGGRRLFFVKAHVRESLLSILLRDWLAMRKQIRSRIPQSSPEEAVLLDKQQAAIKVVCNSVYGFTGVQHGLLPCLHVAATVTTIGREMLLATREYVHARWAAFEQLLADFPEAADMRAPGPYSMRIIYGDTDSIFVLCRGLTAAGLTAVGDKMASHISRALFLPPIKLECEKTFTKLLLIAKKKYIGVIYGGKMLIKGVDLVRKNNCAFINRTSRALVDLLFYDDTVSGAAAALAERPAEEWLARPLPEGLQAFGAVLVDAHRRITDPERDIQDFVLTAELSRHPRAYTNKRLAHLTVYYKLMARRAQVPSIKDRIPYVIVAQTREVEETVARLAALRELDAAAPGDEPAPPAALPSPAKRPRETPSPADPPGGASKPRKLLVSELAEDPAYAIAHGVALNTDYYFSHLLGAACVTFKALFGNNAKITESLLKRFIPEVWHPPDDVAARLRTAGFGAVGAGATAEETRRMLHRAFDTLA
Chain of HCMV DNA polymerase (P08546 whole entry): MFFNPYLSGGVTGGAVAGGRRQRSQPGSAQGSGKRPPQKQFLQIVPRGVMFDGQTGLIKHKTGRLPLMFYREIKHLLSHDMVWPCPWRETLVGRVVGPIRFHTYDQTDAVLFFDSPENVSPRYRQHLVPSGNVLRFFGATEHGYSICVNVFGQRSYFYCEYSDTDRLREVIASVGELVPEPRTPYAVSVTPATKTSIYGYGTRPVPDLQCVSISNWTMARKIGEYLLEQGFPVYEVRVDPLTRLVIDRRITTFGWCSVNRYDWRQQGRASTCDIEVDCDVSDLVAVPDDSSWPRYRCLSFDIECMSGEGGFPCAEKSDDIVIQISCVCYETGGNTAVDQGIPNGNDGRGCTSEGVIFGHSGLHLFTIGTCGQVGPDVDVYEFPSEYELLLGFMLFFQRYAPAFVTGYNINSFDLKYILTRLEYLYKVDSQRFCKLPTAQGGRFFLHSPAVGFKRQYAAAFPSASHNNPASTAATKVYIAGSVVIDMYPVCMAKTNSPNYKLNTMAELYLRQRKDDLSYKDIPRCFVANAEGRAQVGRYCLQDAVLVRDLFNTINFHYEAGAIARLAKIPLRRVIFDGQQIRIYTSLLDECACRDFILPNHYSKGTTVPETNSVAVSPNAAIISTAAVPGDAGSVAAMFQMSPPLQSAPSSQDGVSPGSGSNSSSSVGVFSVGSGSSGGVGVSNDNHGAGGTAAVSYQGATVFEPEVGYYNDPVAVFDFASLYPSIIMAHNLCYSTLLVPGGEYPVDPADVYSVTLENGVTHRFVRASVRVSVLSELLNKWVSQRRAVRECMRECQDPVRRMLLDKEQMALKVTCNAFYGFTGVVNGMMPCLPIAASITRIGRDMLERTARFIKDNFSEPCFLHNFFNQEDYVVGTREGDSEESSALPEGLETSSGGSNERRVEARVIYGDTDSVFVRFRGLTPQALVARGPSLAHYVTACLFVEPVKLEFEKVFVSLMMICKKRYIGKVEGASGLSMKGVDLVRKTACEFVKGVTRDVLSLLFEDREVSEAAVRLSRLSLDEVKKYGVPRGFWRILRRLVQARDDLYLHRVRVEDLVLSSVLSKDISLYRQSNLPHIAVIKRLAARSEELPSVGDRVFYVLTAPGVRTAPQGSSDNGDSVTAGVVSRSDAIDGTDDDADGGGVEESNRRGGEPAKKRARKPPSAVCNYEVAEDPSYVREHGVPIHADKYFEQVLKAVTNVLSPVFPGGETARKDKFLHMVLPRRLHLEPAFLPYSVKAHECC

As for `Cn1c2ccccc2c2c1cc(C#N)c(=O)n2-c1ccc([N+](=O)[O-])cc1` [INDOPY], the “Fold-resistance compared to wild-type” value in assay [1] (Poly rA.dT [^3H]dTTP) is listed as 2.2 fold; in assay [1] (Poly rI.dC [^3H]dCTP), 1.9 fold; in [3] it was 1.0 fold; in assay [4] it was 0.6 fold; in assay [6] it was over 6.7 fold; in [7] (Poly rA.dT [^3H]dTTP) it was 1.5 fold. Moreover, the “Fold-resistance compared to wild-type” value in [7] (Poly rI.dC [^3H]dCTP) is on record as 0.6 fold; in assay [9] (Poly rA.dT [^3H]dTTP), 0.6 fold; in [9] (Poly rI.dC [^3H]dCTP) it was 1.1 fold; in assay [10] (Poly rA.dT [^3H]dTTP), 0.7 fold; in assay [10] (Poly rI.dC [^3H]dCTP), 1.0 fold; in assay [11] (Poly rA.dT [^3H]dTTP), 1.3 fold. The “Fold-resistance compared to wild-type” value in assay [11] (Poly rI.dC [^3H]dCTP) was at least 6.7 fold; in assay [12] (Poly rA.dT [^3H]dTTP) it was 1.6 fold; in [12] (Poly rI.dC [^3H]dCTP), 0.2 fold; in assay [13] (Poly rA.dT [^3H]dTTP), 1.0 fold; in assay [13] (Poly rI.dC [^3H]dCTP) it was 0.4 fold; in assay [15] it was 1.0 fold. Besides, the “Fold-resistance compared to wild-type” value was at least 6.7 fold in assay [16]; 0.7 fold in assay [17]; 1.1 fold in assay [18] (Poly rA.dT [^3H]dTTP); 0.6 fold in assay [18] (Poly rI.dC [^3H]dCTP); 1.0 fold in assay [19] (Poly rA.dT [^3H]dTTP); 1.3 fold in assay [19] (Poly rI.dC [^3H]dCTP). Further, the “Fold-resistance compared to wild-type” value is listed as at least 6.7 fold in [20] and 3.9 fold in assay [22]. Also, the IC50 in assay [2] (setting [23]) was over 100 µM; in [5] (setting [24]), over 100 µM; in [5] (setting [25]) it was over 100 µM; in assay [8] (setting [26]), 0.26 ± 0.07 µM; in [8] (setting [27]), over 200 µM; in assay [14] (setting [28]), over 100 µM. Further, the IC50 in assay [14] (setting [29]) and in assay [21] (setting [30]) was over 100 µM in each case.
Consider `Cc1ccnc2c1NC(=O)c1cccnc1N2C1CC1` [Nevirapine], for which the IC50 in assay [2] was over 250 µM; in assay [5] (IC50 HSV-1 DNA pol, [^3H]dGTP) it was over 100 µM; in assay [5] (IC50 HSV-1 DNA pol, [^3H]dTTP) it was over 100 µM; in assay [14] (IC50 HCMV DNA pol, [^3H]dGTP), over 250 µM; in assay [14] (IC50 HCMV DNA pol, [^3H]dTTP), over 250 µM; in [21] it was over 250 µM.
`O=C(O)P(=O)(O)O` [PFA]: the IC50 is 56 ± 12 µM in assay [2] (setting [23]); 1.6 ± 0.8 µM in assay [5] (setting [24]); 3.5 ± 1.7 µM in [5] (setting [25]); 0.55 ± 0.01 µM in [8] (setting [26]); 17 ± 2 µM in assay [8] (setting [27]); 7 ± 0.7 µM in assay [14] (setting [28]). Also, the IC50 is 9.4 ± 6 µM in [14] (setting [29]) and over 100 µM in [21] (setting [30]).
With `Nc1nc2c(ncn2[C@H]2CC[C@@H](COP(=O)(O)OP(=O)(O)OP(=O)(O)O)O2)c(=O)[nH]1` [ddGTP, 2′,3′-dideoxyguanosine-5′-triphosphate], the IC50 in assay [2] is 73 ± 8 µM; in [5] (IC50 HSV-1 DNA pol, [^3H]dGTP), 4.5 ± 1.2 µM; in assay [5] (IC50 HSV-1 DNA pol, [^3H]dTTP), over 100 µM; in assay [8] (IC50 HIV-1 RT, poly rA.dT, [^3H]dTTP), over 100 µM; in assay [8] (IC50 HIV-1 RT, poly rC.dG, [^3H]dGTP), 0.41 ± 0.02 µM; in [14] (IC50 HCMV DNA pol, [^3H]dGTP), 48 ± 15 µM. The IC50 was over 100 µM in [14] (IC50 HCMV DNA pol, [^3H]dTTP) and 2.2 ± 1.8 µM in assay [21].
